Laboratory results as given in patent US20240156779A1, “SMALL MOLECULE ALLOSTERIC MODULATORS OF CLASS B GPCR, THE PTHR, AND METHOD TO IDENTIFY THEM” (University of Pittsburgh - Of the Commonwealth System of …, priority 2021, published 2024).
Numbering of substitutions follows the chain as printed. Entries after “also recorded” stand apart in the source; their conditions may differ.

Tests used:
PTHR [1] = molecular target: T1, PTHR (Homo sapiens, UniProt Q03431); conditions: cited from earlier work
T1 sequence (Q03431 27-593): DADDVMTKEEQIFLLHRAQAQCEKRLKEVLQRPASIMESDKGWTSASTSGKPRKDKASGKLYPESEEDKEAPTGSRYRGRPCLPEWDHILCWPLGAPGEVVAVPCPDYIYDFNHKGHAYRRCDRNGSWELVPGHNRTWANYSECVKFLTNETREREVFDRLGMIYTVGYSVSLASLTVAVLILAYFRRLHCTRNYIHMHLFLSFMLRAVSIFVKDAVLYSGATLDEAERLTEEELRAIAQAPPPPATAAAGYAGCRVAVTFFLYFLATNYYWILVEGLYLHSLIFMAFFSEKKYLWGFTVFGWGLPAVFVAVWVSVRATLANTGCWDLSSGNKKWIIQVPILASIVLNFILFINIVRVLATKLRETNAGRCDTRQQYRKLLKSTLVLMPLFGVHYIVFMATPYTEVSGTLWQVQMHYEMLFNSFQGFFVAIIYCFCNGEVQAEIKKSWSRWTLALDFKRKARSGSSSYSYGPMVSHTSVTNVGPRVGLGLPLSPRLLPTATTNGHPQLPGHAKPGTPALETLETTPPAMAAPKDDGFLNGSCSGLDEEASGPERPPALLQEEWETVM

recombinant PTHR = assay: Intracellular Ca2+ release (Fluo-4) in response to PTH; assay type: cell-based; conditions: 100 nM PTH, 10 μM Pitt molecules
[2] = molecular target: T2, PTHR association with G proteins (mGs, mGq) (Homo sapiens, UniProt Q03431); assay: FRET time courses of PTHR-CFP interaction with mini-Gs and mini-Gq; assay type: cell-based; conditions: PTH-induced
T2 construct: expressed in transfected cells
T2 sequence (Q03431 27-593): T1 sequence (Q03431 27-593)
T2 sequence (P01270 32-65 partner limits assumed): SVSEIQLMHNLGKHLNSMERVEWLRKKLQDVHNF

[3] = molecular target: T3, human PTH type 1 receptor (hPTHR) (Homo sapiens, UniProt Q03431); assay: Concentration-response curves for cAMP (GloSensor) by PTH with Pitt molecules; assay type: cell-based; conditions: range of Pitt concentrations
T3 construct: expressed in transfected cells
T3 sequence (Q03431 27-593): T1 sequence (Q03431 27-593)

PTHR [4] = molecular target: T1, PTHR; assay: PTH-induced cAMP time courses (FRET sensor) in HEK293 cells stably expressing PTHR; assay type: cell-based; parameters: expressed in transfected cells; conditions: for inhibition of PTH-mediated cAMP production compared with Pitt12: 10 μM compound
human PTHR mutant R181A = molecular target: T4, human PTHR mutant R181A (Homo sapiens, UniProt Q03431, R181A); assay: PTH-induced cAMP signaling of receptor mutant R181A; assay type: cell-based
T4 construct: HA
T4 sequence (Q03431 27-593 R181A): T1 sequence (Q03431 27-593) with R155A

[5] = molecular target: b2-adrenergic receptor (b2AR) (Homo sapiens, UniProt P07550); assay: cAMP production mediated by b2AR agonist isoproterenol; assay type: cell-based; conditions: in response to isoproterenol
human PTHR mutant E180A = molecular target: T5, human PTHR mutant E180A (Homo sapiens, UniProt Q03431, E180A); assay: PTH-induced cAMP signaling of receptor mutant E180A; assay type: cell-based
T5 construct: HA
T5 sequence (Q03431 27-593 E180A): T1 sequence (Q03431 27-593) with E154A

[6] = molecular target: vasopressin type 2 receptor (V2R) (Homo sapiens, UniProt P30518); assay: vasopressin-mediated cAMP production; assay type: cell-based
PTHR [7] = molecular target: T1, PTHR; assay: Radioligand receptor binding, membranes of GP-2.3 cells; parameters: expressed in transfected cells; host or cells: HEK-293-derived GP-2.3 cells (membranes)
[8] = 20 μmol/kg, 3 h after injection

b2-adrenergic receptor (b2AR), sequence (P07550 whole entry, species assumed): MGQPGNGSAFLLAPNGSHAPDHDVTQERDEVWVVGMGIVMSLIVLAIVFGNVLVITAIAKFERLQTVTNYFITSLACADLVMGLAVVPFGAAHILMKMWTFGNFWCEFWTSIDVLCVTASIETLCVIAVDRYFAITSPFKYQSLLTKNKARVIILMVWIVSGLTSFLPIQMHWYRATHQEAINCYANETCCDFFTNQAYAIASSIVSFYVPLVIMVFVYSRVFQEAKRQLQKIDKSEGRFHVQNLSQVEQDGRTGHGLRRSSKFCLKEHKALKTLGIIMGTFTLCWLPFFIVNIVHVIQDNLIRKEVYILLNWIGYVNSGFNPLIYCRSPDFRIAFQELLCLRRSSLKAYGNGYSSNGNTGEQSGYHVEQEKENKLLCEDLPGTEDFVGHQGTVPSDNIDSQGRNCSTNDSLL
vasopressin type 2 receptor (V2R), sequence (P30518 whole entry, species assumed): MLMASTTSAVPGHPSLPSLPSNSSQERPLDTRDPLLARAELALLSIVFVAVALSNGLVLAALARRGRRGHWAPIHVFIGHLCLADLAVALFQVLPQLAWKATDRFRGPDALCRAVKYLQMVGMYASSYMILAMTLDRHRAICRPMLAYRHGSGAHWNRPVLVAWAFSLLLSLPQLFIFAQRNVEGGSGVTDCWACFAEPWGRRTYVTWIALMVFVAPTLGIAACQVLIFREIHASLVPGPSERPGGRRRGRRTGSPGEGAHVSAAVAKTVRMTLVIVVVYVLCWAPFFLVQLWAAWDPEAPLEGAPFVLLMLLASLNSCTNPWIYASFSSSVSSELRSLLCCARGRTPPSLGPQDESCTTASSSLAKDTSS

Question: With `CCCCn1c(O)c(C(=N)N)c(=O)n(CCCC)c1=O` [AH-3960] as the compound, how does the “mode of action at PTHR” value (PTHR [1]) read?
Answer: Its value is “weak agonist”.

Question: With `Cc1cc(N2C(=O)NC(=O)C2(C)C)cc(C)c1CCS(=O)(=O)N1CCC2(CC1)N=C(c1ccc(OC(F)(F)F)cc1)NC2=O` [PCO371] as the compound, how does the “mode of action at PTHR” value (PTHR [1]) read?
Answer: Its value is “orthosteric agonist”.

Question: For `COc1ccc([C@@H]2CN(C(=O)OCC3c4ccccc4-c4ccccc43)C[C@H]2C(=O)O)cc1` [Pitt12], which “PTH-mediated release of stored intracellular Ca2+” value (recombinant PTHR) is on record?
Answer: Its value is “noticeable reduction”.

Question: And the “G proteins association with the receptor” value [2]?
Answer: Its value is “decrease in both the kinetics and magnitude”.

Question: And the “effect on efficacy (Emax) of PTH to mediate cAMP increase” value [3]?
Answer: Its value is “blocked cAMP production by PTH; also recorded: marked reduction in efficacy”.

Question: What about the “alteration of plasma membrane cAMP” value (PTHR [4]; 1 nM PTH) of the same compound?
Answer: The value was “≈ 30%”.

Question: And the “reduction of endosomal cAMP production” value (PTHR [4]; 1 nM PTH)?
Answer: Its value is “≈ 70%”.

Question: What about the “effect on PTH-induced cAMP production (AUC of time course)” value (PTHR [4]; 1 nM PTH co-applied with 10 μM compound, HEK293-PTHR) of the same compound?
Answer: The value was “distinguishably high potential to elicit negative effects”.

Question: And the “sustained cAMP response on blockade of receptor internalization” value (PTHR [4]; cells expressing DynK44A, PTH with Pitt coapplied)?
Answer: The value was “moderately affected”.

Question: What about the “sensitivity of R181A mutant to modulation of PTH-induced cAMP” value (human PTHR mutant R181A) of the same compound?
Answer: Its value is “lost their ability to respond to negative modulation”.

Question: And the “effect on β2AR-mediated cAMP production” value [5]?
Answer: Its value is “no effect”.

Question: What about the “serum Ca2+ (sCa2+) level, compound alone” value (C57BL/6 mice; [8]) of the same compound?
Answer: Its value is “significantly reduced”.

Question: And the “serum phosphate (sPi) level, compound alone” value (C57BL/6 mice; [8])?
Answer: Its value is “trend of reducing”.

Question: What about the “BUN/creatine ratio (kidney function and hydration status)” value (C57BL/6 mice; mouse, in vivo) of the same compound?
Answer: The value was “lack of significant changes”.

Question: And the “sensitivity of E180A mutant to modulation of PTH-induced cAMP” value (human PTHR mutant E180A)?
Answer: Its value is “lost their ability to respond to negative modulation”.

Question: What about the “effect on vasopressin-mediated cAMP” value [6] of the same compound?
Answer: Its value is “lack of effect”.

Question: What about the “inhibitory binding constant (Ki), RG state” value (PTHR [7]; G-protein coupled (RG) state) of the same compound?
Answer: Its value is “in the μM range”.

Question: And the “inhibitory binding constant (Ki), R0 state” value (PTHR [7]; G-protein uncoupled (R0) state, with GTPgS)?
Answer: The value was “in the μM range”.

Question: For `O=C(O)[C@@H]1CN(C(=O)OCC2c3ccccc3-c3ccccc32)C[C@H]1c1ccccc1` [Pitt41], which “inhibition of PTH-mediated cAMP production compared with Pitt12” value (PTHR [4]; HEK293-PTHR) is on record?
Answer: The value was “more efficacious than Pitt12”.

Question: With `Cc1ccc([C@@H]2CN(C(=O)OCC3c4ccccc4-c4ccccc43)C[C@H]2C(=O)O)cc1` [Pitt42] as the compound, how does the “inhibition of PTH-mediated cAMP production compared with Pitt12” value (PTHR [4]; HEK293-PTHR) read?
Answer: The value was “more efficacious than Pitt12”.
